Results on ten molecules are retold here after US9670213B2, “Pteridine ketone derivative and applications thereof as EGFR, BLK, and FLT3 inhibitor” (EAST CHINA UNIVERSITY OF SCIENCE AND TECHNOLOGY, priority 2012, dated 2017).

One assay has as its target wild-type EGFR (Homo sapiens (Human), UniProt P00533). Description: In vitro EGFR kinase activity assay (Z'-Lyte). In kind it is biochemical. To be noted: EGFR WT; read-out: Inhibitory activity on EGFR kinase (IC50, nM) WT.
In a further assay the target is FLT3 (Homo sapiens (Human), UniProt P36888). Description: FLT3 kinase activity assay (Caliper). It is filed as biochemical. To be noted: read-out: Inhibitory activity on kinase (IC50, nM) FLT3. As to the method: (§1) Preparation of 1× kinase matrix buffer and stop buffer.
(§2) Preparation of compound solution. The compound was dissolved in 100% DMSO to a concentration, which was 50 times of the final highest inhibiting-concentration. 100 μL of the compound solution as said above was transferred into wells of 96-well plate. The above compound solution was sequentially diluted to the final desired concentration. In two blank wells of same 96-well plate, 100 μL of 100% DMSO was added as no-compound and no-kinase control, and this plate was used as the original plate.
(§3) Preparation of intermediate plate. 10 μL of compound solution was transferred from the original plate to another 96-well plate as the intermediate plate; 90 μL of 1× kinase buffer was added into each well of the intermediate plate, and the intermediate plate was shaken for 10 min.
(§4) Preparation of assay plate. 5 μL of solution from each well of intermediate plate was added into a 384-well plate, and repeated controls were set.
(§5) Kinase reaction. 2.5× kinase solution and 2.5× peptide solution were prepared. 2.5× kinase solution was transferred into assay plate. Assay plate comprised 5 μL of the compound solution in 10% DMSO. 10 μL of 2.5× kinase solution was added in each well of 384-well assay plate. […] 2.5× peptide solution was added into each well. After incubated at 28° C. for an appropriate time, 25 μL of stop buffer was added to quench the reaction. Experimental data were collected in Caliper. Curve was fitted.

The next assay has as its target BLK (Homo sapiens (Human), UniProt P51451). The experiment in a line: BLK kinase activity assay (Caliper). It is filed as biochemical. To be noted: read-out: Inhibitory activity on kinase (IC50, nM) BLK. As to the method:
as §1, §2, §3, §4, §5

The target in a further assay is EGFR-L858R/T790M (Homo sapiens (Human), UniProt P00533, L858R/T790M). The experiment in a line: In vitro EGFR kinase activity assay (Z'-Lyte). It is filed as biochemical. To be noted: read-out: Inhibitory activity on EGFR kinase (IC50, nM) T790M/L858R.
Assay [1] relates to H1975 (non-small cell lung cancer cells, EGFR L858R/T790M). The experiment in a line: Cell proliferation and growth inhibition analysis. In kind it is cell-based. To be noted: Homo sapiens, NCI-H1975, 72 hours, read-out: Inhibitory activity on cell proliferation (IC50, μM) H1975. As to the method:
(§6) Cell proliferation was evaluated by MTS assay. Cells were exposed to the process conditions for 72 hours, and the number of cells for each cell line used in the experiment was adjusted according to the absorbance value (absorbance value at 490 nm was 1.3-2.2). 6 concentration gradients (0.1 nM-10 μM) were set for the compounds to be tested, with six parallel controls for each concentration.
(§7) H1975, HCC827, A549, BT474, MCF-7, SK-BR-3 cells were cultured in the corresponding medium. Upon recovery, the cells were passaged at least two times and then used in experiments. Cells in Log phase were trypsinized and resuspended in the medium. H1975 (1000 cells per well), BT474 (1500 cells per well), MCF-7 (1500 cells per well), HCC827 (2000 cells per well), SK-BR-3 (2000 cells per well), A549 (2000 cells per well) were seeded into 96-well plates, the volume was 100 μL, and 6 rows and 7 columns were set. The plate was placed in an incubator at 37° C. of 5% carbon dioxide overnight. Compounds were dissolved in DMSO to obtain the concentration of […], and then gradually diluted to obtain the concentration of compound as […], 0.1 μM, 0.01 μM, 0.001 μM, 0.0001 μM. 2 μL of compound solution was added into 998 μL of medium, and the resulting mixture was thoroughly mixed. 100 μL of mixture was added into 96-well plate. […] After the cells were cultured for 68 hours, 20 μL of MTT (5 mg/mL) was added. After 4 hours, the supernatant was discarded and 150 μL of DMSO was added. The resulting system was shaken for 10 minutes, and the plate was read with Synergy HT (Bio TeK) (OD490). The data was calculated by GraphPad Prism version 4.0, and IC50 was obtained by non-linear regression model using dose-response curve.

Assay [2] relates to HCC827 (non-small cell lung cancer cells, EGFR del E746-A750). Description: Cell proliferation and growth inhibition analysis. To be noted: Homo sapiens, 72 hours, read-out: Inhibitory activity on cell proliferation (IC50, μM) HCC827. It is filed as cell-based. Here is the method:
as §6, §7

For a further assay, the target named is EGFR-L858R (Homo sapiens (Human), UniProt P00533, L858R). The experiment in a line: In vitro EGFR kinase activity assay (Z'-Lyte). In kind it is biochemical. To be noted: read-out: Inhibitory activity on EGFR kinase (IC50, nM) L858R.
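Throughout, for Inhibitory activity on EGFR kinase (IC50, nM) L858R: Cell-free kinase reaction with peptide substrate and ATP, 1.5 h at room temperature, then development step cleaving non-phosphorylated peptide, 10-point dilution series 0.051–1000 nM, phosphopeptide as 100% phosphorylation control.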
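Throughout, for Inhibitory activity on EGFR kinase (IC50, nM) T790M/L858R: Cell-free kinase reaction with peptide substrate and ATP, 1.5 h at room temperature, development cleaving unphosphorylated peptide, 10-point dilution 0.051–1000 nM, phosphopeptide as 100% phosphorylation control.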
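Throughout, for Inhibitory activity on EGFR kinase (IC50, nM) WT: Ten-point dose series from 5.1×10^−11 to 1.0×10^−6 mol/L, kinase reaction 1.5 h at room temperature, then 1 h development cleaving unphosphorylated peptide, phosphopeptide as 100% phosphorylation control.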

Chain of FLT3 (P36888 27-993): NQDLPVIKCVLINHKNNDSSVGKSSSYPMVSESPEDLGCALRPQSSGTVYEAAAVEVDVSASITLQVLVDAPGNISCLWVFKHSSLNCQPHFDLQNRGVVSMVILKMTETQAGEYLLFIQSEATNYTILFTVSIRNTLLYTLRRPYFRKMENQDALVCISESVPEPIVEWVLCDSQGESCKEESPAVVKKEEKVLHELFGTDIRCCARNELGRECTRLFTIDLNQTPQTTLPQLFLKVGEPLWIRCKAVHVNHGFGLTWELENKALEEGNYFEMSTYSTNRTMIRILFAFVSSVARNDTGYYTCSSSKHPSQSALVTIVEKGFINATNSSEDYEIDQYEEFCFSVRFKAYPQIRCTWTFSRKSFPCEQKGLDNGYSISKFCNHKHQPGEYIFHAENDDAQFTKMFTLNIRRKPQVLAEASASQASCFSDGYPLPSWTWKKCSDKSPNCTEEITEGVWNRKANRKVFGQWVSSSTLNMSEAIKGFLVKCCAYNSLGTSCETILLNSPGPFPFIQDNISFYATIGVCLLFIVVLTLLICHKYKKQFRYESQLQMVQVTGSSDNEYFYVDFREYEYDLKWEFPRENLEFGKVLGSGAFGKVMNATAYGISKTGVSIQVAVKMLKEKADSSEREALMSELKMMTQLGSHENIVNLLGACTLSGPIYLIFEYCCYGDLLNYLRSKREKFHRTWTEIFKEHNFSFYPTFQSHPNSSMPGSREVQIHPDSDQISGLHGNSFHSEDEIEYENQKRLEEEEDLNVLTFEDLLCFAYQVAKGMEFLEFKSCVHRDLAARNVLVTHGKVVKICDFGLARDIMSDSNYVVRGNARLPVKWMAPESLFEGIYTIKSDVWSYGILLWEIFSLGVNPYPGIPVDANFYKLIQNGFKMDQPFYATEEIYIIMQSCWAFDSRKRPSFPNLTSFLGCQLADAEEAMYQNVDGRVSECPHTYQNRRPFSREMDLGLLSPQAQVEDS
Chain of BLK (P51451 whole entry): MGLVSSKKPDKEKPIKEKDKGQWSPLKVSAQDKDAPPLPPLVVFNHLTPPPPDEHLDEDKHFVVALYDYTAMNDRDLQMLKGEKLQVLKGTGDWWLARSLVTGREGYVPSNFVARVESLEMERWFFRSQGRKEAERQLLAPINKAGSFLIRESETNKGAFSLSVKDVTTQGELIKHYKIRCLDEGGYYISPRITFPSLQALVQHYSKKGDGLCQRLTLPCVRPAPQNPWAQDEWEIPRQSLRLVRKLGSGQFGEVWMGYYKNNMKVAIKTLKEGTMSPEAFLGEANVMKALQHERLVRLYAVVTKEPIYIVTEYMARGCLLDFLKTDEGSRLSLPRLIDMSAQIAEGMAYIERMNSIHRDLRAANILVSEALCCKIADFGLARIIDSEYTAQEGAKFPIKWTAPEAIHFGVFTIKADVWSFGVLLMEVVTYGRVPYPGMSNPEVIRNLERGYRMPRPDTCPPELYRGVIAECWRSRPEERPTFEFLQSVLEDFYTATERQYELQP
Chain of EGFR-L858R (P00533 25-1210 L858R): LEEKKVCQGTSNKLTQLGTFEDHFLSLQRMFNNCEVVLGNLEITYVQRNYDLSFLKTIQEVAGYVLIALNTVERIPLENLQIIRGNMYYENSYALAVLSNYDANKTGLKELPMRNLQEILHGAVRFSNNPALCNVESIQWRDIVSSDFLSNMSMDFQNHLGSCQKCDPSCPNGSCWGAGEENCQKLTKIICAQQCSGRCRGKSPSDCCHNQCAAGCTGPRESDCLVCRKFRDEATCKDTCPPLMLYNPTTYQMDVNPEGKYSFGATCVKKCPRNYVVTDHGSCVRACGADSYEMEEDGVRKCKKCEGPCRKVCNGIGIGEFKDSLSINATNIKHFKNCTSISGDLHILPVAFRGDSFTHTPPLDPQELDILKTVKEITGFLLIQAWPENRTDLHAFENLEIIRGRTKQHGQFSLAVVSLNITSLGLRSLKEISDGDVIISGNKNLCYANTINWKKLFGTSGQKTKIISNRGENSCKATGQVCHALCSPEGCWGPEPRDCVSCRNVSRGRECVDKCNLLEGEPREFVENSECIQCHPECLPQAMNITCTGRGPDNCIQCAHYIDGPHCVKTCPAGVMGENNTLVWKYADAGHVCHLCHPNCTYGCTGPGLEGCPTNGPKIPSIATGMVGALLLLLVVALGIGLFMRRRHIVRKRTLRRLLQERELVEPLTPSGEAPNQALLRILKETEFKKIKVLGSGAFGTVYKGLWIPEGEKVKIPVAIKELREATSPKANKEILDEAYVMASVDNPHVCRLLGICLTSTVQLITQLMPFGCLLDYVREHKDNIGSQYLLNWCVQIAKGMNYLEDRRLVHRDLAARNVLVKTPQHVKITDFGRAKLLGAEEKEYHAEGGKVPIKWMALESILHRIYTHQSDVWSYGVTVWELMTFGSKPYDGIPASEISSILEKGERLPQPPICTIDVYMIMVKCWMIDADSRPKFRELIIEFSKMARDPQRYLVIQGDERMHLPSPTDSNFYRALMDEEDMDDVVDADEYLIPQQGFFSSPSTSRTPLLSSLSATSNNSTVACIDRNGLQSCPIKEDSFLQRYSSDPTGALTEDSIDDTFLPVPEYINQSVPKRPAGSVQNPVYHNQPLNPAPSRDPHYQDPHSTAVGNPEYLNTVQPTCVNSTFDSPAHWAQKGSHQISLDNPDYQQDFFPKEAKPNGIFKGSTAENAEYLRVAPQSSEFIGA
Chain of EGFR-L858R/T790M (P00533 25-1210 T790M/L858R): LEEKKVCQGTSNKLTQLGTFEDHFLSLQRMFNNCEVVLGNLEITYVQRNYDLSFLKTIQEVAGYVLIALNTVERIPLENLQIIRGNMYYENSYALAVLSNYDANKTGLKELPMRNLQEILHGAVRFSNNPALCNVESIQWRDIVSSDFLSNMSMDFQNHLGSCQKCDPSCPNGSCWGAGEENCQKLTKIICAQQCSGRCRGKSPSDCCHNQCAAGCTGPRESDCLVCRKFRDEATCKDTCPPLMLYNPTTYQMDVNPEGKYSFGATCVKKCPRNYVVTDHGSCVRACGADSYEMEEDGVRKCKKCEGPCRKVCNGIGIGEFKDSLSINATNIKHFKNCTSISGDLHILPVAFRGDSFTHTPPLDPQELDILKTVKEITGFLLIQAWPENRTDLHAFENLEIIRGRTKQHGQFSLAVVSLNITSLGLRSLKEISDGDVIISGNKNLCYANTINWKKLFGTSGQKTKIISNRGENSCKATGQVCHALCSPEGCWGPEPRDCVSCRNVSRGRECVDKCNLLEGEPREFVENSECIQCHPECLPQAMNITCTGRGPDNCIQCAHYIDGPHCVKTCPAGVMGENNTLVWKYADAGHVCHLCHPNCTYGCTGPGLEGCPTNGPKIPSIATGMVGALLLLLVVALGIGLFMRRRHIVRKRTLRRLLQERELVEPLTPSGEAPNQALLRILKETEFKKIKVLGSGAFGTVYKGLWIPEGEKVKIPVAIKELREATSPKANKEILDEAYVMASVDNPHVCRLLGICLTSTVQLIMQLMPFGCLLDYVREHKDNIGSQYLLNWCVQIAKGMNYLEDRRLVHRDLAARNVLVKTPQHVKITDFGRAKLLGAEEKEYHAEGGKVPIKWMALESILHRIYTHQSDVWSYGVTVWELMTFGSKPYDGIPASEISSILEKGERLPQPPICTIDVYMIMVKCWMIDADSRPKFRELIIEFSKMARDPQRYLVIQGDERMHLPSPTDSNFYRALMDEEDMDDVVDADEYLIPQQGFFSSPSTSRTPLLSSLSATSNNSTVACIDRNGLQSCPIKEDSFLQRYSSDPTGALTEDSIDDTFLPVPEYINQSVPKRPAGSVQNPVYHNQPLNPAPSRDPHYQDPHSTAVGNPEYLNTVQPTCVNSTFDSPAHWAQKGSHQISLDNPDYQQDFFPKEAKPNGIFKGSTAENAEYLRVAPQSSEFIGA
Chain of wild-type EGFR (P00533 25-1210): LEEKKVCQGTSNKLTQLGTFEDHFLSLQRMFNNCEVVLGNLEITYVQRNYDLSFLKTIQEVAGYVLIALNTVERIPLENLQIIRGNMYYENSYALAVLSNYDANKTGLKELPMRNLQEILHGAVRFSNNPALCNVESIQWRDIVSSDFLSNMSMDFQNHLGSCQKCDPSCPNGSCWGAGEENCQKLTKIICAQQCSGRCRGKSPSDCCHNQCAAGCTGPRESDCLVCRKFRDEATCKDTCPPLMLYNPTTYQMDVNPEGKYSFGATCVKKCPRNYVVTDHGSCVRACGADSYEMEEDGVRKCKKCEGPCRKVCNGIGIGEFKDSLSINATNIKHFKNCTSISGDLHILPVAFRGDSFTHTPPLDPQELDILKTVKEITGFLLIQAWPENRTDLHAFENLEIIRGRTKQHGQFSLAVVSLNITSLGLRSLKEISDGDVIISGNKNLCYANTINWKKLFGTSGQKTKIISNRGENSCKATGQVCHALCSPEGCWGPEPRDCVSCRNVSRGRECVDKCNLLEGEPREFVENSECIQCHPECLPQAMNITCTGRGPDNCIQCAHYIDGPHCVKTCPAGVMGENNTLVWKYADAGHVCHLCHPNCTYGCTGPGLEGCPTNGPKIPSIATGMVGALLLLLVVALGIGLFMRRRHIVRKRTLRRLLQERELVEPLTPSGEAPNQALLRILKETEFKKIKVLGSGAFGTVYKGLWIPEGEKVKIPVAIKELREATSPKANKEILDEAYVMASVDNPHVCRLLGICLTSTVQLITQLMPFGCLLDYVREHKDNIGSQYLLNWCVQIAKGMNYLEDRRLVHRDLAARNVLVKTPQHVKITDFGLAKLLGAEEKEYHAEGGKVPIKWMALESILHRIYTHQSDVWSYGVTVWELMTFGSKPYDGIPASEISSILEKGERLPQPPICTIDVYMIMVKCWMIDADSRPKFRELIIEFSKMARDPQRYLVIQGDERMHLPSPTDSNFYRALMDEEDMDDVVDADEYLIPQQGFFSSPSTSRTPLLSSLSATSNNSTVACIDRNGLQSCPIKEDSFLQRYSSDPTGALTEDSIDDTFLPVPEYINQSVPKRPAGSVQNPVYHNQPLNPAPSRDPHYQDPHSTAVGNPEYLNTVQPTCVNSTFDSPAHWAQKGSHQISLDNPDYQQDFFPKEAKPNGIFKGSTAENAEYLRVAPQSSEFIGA

For `C=CC(=O)Nc1ccc(-n2c(=O)cnc3cnc(Nc4ccc(N5CCN(C)CC5)cc4)nc32)cc1` [Compound 019, N-(4-(2-(4-(4-methyl-1-piperazinyl)-phenylamino)-7-oxo-8(7H)-pteridin-yl)phenyl) acrylamide], the IC50 on wild-type EGFR stood at 1260 nM; on FLT3 it was 51 nM; on BLK, 796 nM; on EGFR-L858R/T790M, 738 nM; in assay [1], 8.87 µM; in assay [2], 0.676 µM. Moreover, the IC50 at EGFR-L858R came to 6380 nM.

Turning to `C=CC(=O)Nc1cccc(-n2c(=O)cnc3cnc(Nc4ccc(N5CCCCC5)cc4)nc32)c1` [Compound 021, N-(3-(7-oxo-2-(4-(1-piperidinyl)phenylamino)-8(7H)-pteridinyl)phenyl) acrylamide], the IC50 at wild-type EGFR came to 19.7 nM; at FLT3, 878 nM; on BLK, 83 nM; at EGFR-L858R/T790M it was 5.49 nM; in assay [1], 0.238 µM; in assay [2], 0.02 µM. In addition, at EGFR-L858R, the IC50 came out at 11.7 nM.

As for `C=CC(=O)Nc1cccc(-n2c(=O)cnc3cnc(Nc4ccccc4)nc32)c1` [Compound 015, N-(3-(7-oxo-2-(phenylamino)-8(7H)-pteridin-yl)phenyl)acrylamide], the IC50 at FLT3 amounted to 1860 nM; in assay [1] it was 0.437 µM.

Turning to `C=CC(=O)Oc1ccc(-n2c(=O)cnc3cnc(Nc4ccc(OC)cc4)nc32)cc1` [Compound 011, 4-(2 (4-methoxyphenylamino)-7-oxo-8(7H)-pteridin-yl)phenyl acrylate], the IC50 on wild-type EGFR was 67 nM; at FLT3, 48 nM; on BLK, 89 nM; at EGFR-L858R/T790M, 70.3 nM; in assay [1], 5.6 µM; in assay [2], 2.29 µM. For the same molecule, on EGFR-L858R, the IC50 is 84.8 nM.

`C=CC(=O)Nc1ccc(-n2c(=O)cnc3cnc(Nc4ccc(N5CCN(C)CC5)cc4OC)nc32)cc1` [Compound 031]: the IC50 is 429 nM on wild-type EGFR; 180 nM at FLT3; 812 nM on BLK; 229 nM at EGFR-L858R/T790M; 2.88 µM in assay [1]; 0.466 µM in assay [2]. The IC50 at EGFR-L858R amounted to 376 nM.

As for `C=CC(=O)Nc1cccc(-n2c(=O)cnc3cnc(Nc4ccc(N5CCCC5)cc4)nc32)c1` [Compound 022, N-(3-(7-oxo-2-(4-(1-pyrrolidinyl)phenylamino)-8(7H)-pteridin-yl)phenyl) acrylamide], the IC50 at wild-type EGFR was 23.3 nM; at FLT3 it was 1080 nM; at BLK, 98 nM; at EGFR-L858R/T790M, 5.33 nM; in assay [1] it was 0.531 µM; in assay [2] it was 0.073 µM. In addition, at EGFR-L858R, the IC50 was 12.6 nM.

For the molecule `C=CC(=O)Nc1cccc(-n2c(=O)cnc3cnc(Nc4ccc(NC(C)=O)cc4)nc32)c1` [Compound 024, N-(3-(2-(4-(acetylamino)-phenylamino)-7-oxo-8(7H)-pteridin-yl)phenyl) acrylamide], the IC50 amounted to 15.8 nM on wild-type EGFR; 3550 nM at FLT3; 148 nM at BLK; 5.12 nM on EGFR-L858R/T790M; 6.08 µM in assay [1]; 0.229 µM in assay [2]. Besides, the IC50 at EGFR-L858R stood at 13.4 nM.

On to `C=CC(=O)Nc1cccc(Oc2nc(Nc3ccc(N4CCN(C)CC4)cc3OC)ncc2Cl)c1` [WZ4002, reference compound], for which the IC50 in assay [1] was 0.039 µM; in assay [2] it was 0.014 µM.

Regarding `C=CC(=O)Nc1cccc(-n2c(=O)c(C)nc3cnc(Nc4ccc(OC)cc4)nc32)c1` [Compound 026, N-(3-(2-(4-methoxyphenylamino)-6-methyl-7-oxo-8(7H)-pteridin-yl)phenyl) acrylamide], the IC50 on FLT3 is 568 nM; at BLK it was 96 nM.

Turning to `CN(C)C/C=C/C(=O)Nc1cccc(-n2c(=O)cnc3cnc(Nc4ccccc4)nc32)c1` [Compound 013, 4-(dimethylamino)-N-(3-(7-oxo-2-(phenylamino)-8(7H)-pteridin-yl)phenyl)-2-buteneamide], the results for the IC50 on FLT3 and on BLK were 3780 nM and 171 nM, respectively.
